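In this assay, cells in 96-well plates receive the compound at five concentrations for 48 hours. Endpoints are linearly interpolated between the surrounding concentrations. At the GI50, growth is halved.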 Calls of active or inactive are those of the source. No stated cut-off is given here; in the data, active = GI50 up to about 1.1 µM and inactive = higher.
Experiments:
Experiment in all cases: growth of human tumour cells (NCI), 48 h
[1] = test system: SK-OV-3
[2] = test system: OVCAR-5
[3] = test system: SR
[4] = test system: OVCAR-3
[5] = test system: OVCAR-8
[6] = test system: LOX IMVI
[7] = test system: MDA-MB-231
[8] = test system: COLO 205
[9] = test system: SK-MEL-5
[10] = test system: RXF 393
[11] = test system: HCT-116
[12] = test system: PC-3
[13] = test system: SF-295
[14] = test system: NCI/ADR-RES
[15] = test system: KM12
[16] = test system: ACHN
[17] = test system: EKVX
[18] = test system: HCC 2998
[19] = test system: MOLT-4
[20] = test system: RPMI-8226

Q: What does the source list for `CC(C)(C)c1cc(C2COC(=O)COCCOCC(=O)OCCOCCO2)cc(C(C)(C)C)c1O` (stereo not given)?
A: GI50 [1]: 32.1 µM (inactive); GI50 [2]: 21.7 µM (inactive); GI50 [3]: 21.8 µM (inactive); GI50 [4]: > 100 µM (inactive); GI50 [5]: 41.6 µM (inactive); GI50 [6]: 18.7 µM (inactive); GI50 [7]: 46.6 µM (inactive); GI50 [8]: 32.5 µM (inactive); GI50 [9]: > 100 µM (inactive); GI50 [10]: 23.1 µM (inactive); GI50 [11]: > 68.2 µM (inactive); GI50 [12]: 22.4 µM (inactive); GI50 [13]: 24 µM (inactive); GI50 [14]: > 100 µM (inactive); GI50 [15]: > 100 µM (inactive); GI50 [16]: 20.7 µM (inactive); GI50 [17]: > 95.1 µM (inactive); GI50 [18]: 23 µM (inactive); GI50 [19]: > 100 µM (inactive); GI50 [20]: > 100 µM (inactive)

Q: With `c1ccc(COc2ccc(C[P+](c3ccccc3)(c3ccccc3)c3ccccc3)cc2)cc1` as the compound, how does the GI50 [1] read?
A: 0.287 µM (active)

Q: What about the GI50 [2] of the same compound?
A: 0.269 µM (active)

Q: And the GI50 [3]?
A: 0.46 µM (active)

Q: What about the GI50 [4] of the same compound?
A: 0.146 µM (active)

Q: What about the GI50 [5] of the same compound?
A: 0.163 µM (active)

Q: And the GI50 [6]?
A: 0.251 µM (active)

Q: And the GI50 [7]?
A: 0.776 µM (active)

Q: And the GI50 [8]?
A: 0.129 µM (active)

Q: What about the GI50 [9] of the same compound?
A: 0.108 µM (active)

Q: What about the GI50 [10] of the same compound?
A: 0.0395 µM (active)

Q: And the GI50 [11]?
A: 0.104 µM (active)

Q: What about the GI50 [12] of the same compound?
A: 0.131 µM (active)

Q: What about the GI50 [13] of the same compound?
A: 0.318 µM (active)

Q: And the GI50 [14]?
A: 13.4 µM (inactive)

Q: What about the GI50 [15] of the same compound?
A: 0.191 µM (active)

Q: And the GI50 [16]?
A: 0.676 µM (active)

Q: And the GI50 [17]?
A: 0.233 µM (active)

Q: And the GI50 [18]?
A: 0.16 µM (active)

Q: And the GI50 [19]?
A: 0.285 µM (active)

Q: And the GI50 [20]?
A: 0.0257 µM (active)

Q: For `CCC(/C=C/c1ccccc1)=N\Nc1ccc(Cl)c(Cl)c1`, which GI50 [1] is on record?
A: 27.4 µM (inactive)

Q: What about the GI50 [2] of the same compound?
A: 66.1 µM (inactive)

Q: What about the GI50 [3] of the same compound?
A: 34.8 µM (inactive)

Q: What about the GI50 [4] of the same compound?
A: 25.7 µM (inactive)

Q: What about the GI50 [5] of the same compound?
A: 16 µM (inactive)

Q: And the GI50 [6]?
A: 22.8 µM (inactive)

Q: What about the GI50 [7] of the same compound?
A: 17.8 µM (inactive)

Q: What about the GI50 [8] of the same compound?
A: 24.9 µM (inactive)

Q: What about the GI50 [9] of the same compound?
A: 13.8 µM (inactive)

Q: What about the GI50 [10] of the same compound?
A: 26.7 µM (inactive)

Q: What about the GI50 [11] of the same compound?
A: 23.7 µM (inactive)

Q: And the GI50 [12]?
A: 55.6 µM (inactive)

Q: What about the GI50 [13] of the same compound?
A: 34.7 µM (inactive)

Q: And the GI50 [14]?
A: 31.9 µM (inactive)

Q: And the GI50 [15]?
A: 29.3 µM (inactive)

Q: And the GI50 [16]?
A: 26.7 µM (inactive)

Q: What about the GI50 [17] of the same compound?
A: 30.3 µM (inactive)

Q: And the GI50 [18]?
A: 25.9 µM (inactive)

Q: What about the GI50 [19] of the same compound?
A: 31 µM (inactive)

Q: What about the GI50 [20] of the same compound?
A: 19.1 µM (inactive)

Q: Which results are given for `Cc1ccc(C(=O)N/N=C(\N=N\c2ccc([N+](=O)[O-])cc2)c2ccc(N(CCC#N)CCC#N)cc2C)cc1`?
A: GI50 [1]: > 100 µM (inactive); GI50 [2]: > 100 µM (inactive); GI50 [3]: 63.8 µM (inactive); GI50 [4]: 39.6 µM (inactive); GI50 [5]: 28.1 µM (inactive); GI50 [6]: 60.8 µM (inactive); GI50 [7]: > 100 µM (inactive); GI50 [8]: 50 µM (inactive); GI50 [9]: 75.3 µM (inactive); GI50 [10]: 16.7 µM (inactive); GI50 [11]: 54.8 µM (inactive); GI50 [12]: 50.1 µM (inactive); GI50 [13]: 57.9 µM (inactive); GI50 [14]: > 100 µM (inactive); GI50 [15]: 39.5 µM (inactive); GI50 [16]: > 100 µM (inactive); GI50 [17]: > 100 µM (inactive); GI50 [18]: 54.1 µM (inactive); GI50 [19]: 57.3 µM (inactive); GI50 [20]: > 100 µM (inactive)

Q: With `CCOC(=O)c1ccc(Nc2cnc3cc(C(F)(F)F)ccc3n2)cc1` as the compound, how does the GI50 [1] read?
A: > 100 µM (inactive)

Q: What about the GI50 [2] of the same compound?
A: > 100 µM (inactive)

Q: And the GI50 [3]?
A: > 100 µM (inactive)

Q: And the GI50 [4]?
A: > 100 µM (inactive)

Q: And the GI50 [5]?
A: > 100 µM (inactive)

Q: What about the GI50 [6] of the same compound?
A: > 100 µM (inactive)

Q: And the GI50 [7]?
A: > 100 µM (inactive)

Q: What about the GI50 [8] of the same compound?
A: > 100 µM (inactive)

Q: What about the GI50 [9] of the same compound?
A: > 100 µM (inactive)

Q: What about the GI50 [10] of the same compound?
A: > 10 µM (inactive)

Q: And the GI50 [11]?
A: 63 µM (inactive)

Q: What about the GI50 [12] of the same compound?
A: > 100 µM (inactive)

Q: And the GI50 [13]?
A: > 100 µM (inactive)

Q: What about the GI50 [14] of the same compound?
A: > 100 µM (inactive)

Q: And the GI50 [15]?
A: 85.1 µM (inactive)

Q: What about the GI50 [16] of the same compound?
A: > 100 µM (inactive)

Q: And the GI50 [17]?
A: > 100 µM (inactive)

Q: What about the GI50 [18] of the same compound?
A: > 100 µM (inactive)

Q: And the GI50 [19]?
A: > 100 µM (inactive)

Q: And the GI50 [20]?
A: > 100 µM (inactive)

Q: For `N#Cc1c(Cl)c2cccnc2n2c1nc1ccccc12`, which GI50 [1] is on record?
A: 15.5 µM (inactive)

Q: What about the GI50 [2] of the same compound?
A: 14.2 µM (inactive)

Q: What about the GI50 [3] of the same compound?
A: 1.08 µM (active)

Q: What about the GI50 [4] of the same compound?
A: 2.72 µM (inactive)

Q: And the GI50 [5]?
A: 1.96 µM (inactive)

Q: What about the GI50 [6] of the same compound?
A: 1.66 µM (inactive)

Q: And the GI50 [7]?
A: 2.13 µM (inactive)

Q: And the GI50 [8]?
A: 1.99 µM (inactive)

Q: What about the GI50 [9] of the same compound?
A: 1.13 µM (inactive)

Q: What about the GI50 [10] of the same compound?
A: 1.42 µM (inactive)

Q: And the GI50 [11]?
A: 1.7 µM (inactive)

Q: What about the GI50 [12] of the same compound?
A: 2.41 µM (inactive)

Q: And the GI50 [13]?
A: 19 µM (inactive)

Q: What about the GI50 [14] of the same compound?
A: 2.69 µM (inactive)

Q: And the GI50 [15]?
A: 6.41 µM (inactive)

Q: What about the GI50 [16] of the same compound?
A: 1.78 µM (inactive)

Q: What about the GI50 [17] of the same compound?
A: 4.22 µM (inactive)

Q: And the GI50 [18]?
A: 3.85 µM (inactive)

Q: And the GI50 [19]?
A: 2.04 µM (inactive)

Q: What about the GI50 [20] of the same compound?
A: 1.78 µM (inactive)

Q: For `O=NN(CCCl)C(=O)NCCCl` [CARMUSTINE], which GI50 [1] is on record?
A: 115 µM (inactive)

Q: And the GI50 [2]?
A: 105 µM (inactive)

Q: What about the GI50 [3] of the same compound?
A: 14 µM (inactive)

Q: And the GI50 [4]?
A: 83.6 µM (inactive)

Q: What about the GI50 [5] of the same compound?
A: 77.8 µM (inactive)

Q: And the GI50 [6]?
A: 38 µM (inactive)

Q: What about the GI50 [7] of the same compound?
A: 91 µM (inactive)

Q: What about the GI50 [8] of the same compound?
A: 72.3 µM (inactive)

Q: What about the GI50 [9] of the same compound?
A: 78.7 µM (inactive)

Q: And the GI50 [10]?
A: 76.2 µM (inactive)

Q: And the GI50 [11]?
A: 73.6 µM (inactive)

Q: And the GI50 [12]?
A: 97.7 µM (inactive)

Q: What about the GI50 [13] of the same compound?
A: 44.5 µM (inactive)

Q: What about the GI50 [14] of the same compound?
A: 94.6 µM (inactive)

Q: What about the GI50 [15] of the same compound?
A: 88.9 µM (inactive)

Q: What about the GI50 [16] of the same compound?
A: 83 µM (inactive)

Q: What about the GI50 [17] of the same compound?
A: 120 µM (inactive)

Q: What about the GI50 [18] of the same compound?
A: 93.8 µM (inactive)

Q: And the GI50 [19]?
A: 33.5 µM (inactive)

Q: What about the GI50 [20] of the same compound?
A: 51.3 µM (inactive)
